From publication PMC9863987, “Identification of Aryl Polyamines Derivatives as Anti-Trypanosoma cruzi Agents Targeting Iron Superoxide Dismutase” (Pharmaceutics, 2022)

Experiments:
[1] = tested on: T. cruzi Tulahuen strain epimastigotes; assay: Screening against extracellular epimastigotes, Tulahuen strain (resazurin); type: cell-based, Trypanosoma cruzi
Experimental: (§1) Three different T. cruzi […] strains—MHOM/Pe/2011/Arequipa, discrete typing unit (DTU) V [26]; IRHOD/CO/2008/SN3, DTU I [27]; TINF/CH/1956/Tulahuen, DTU VI [26]—were grown at 28 °C in Gibco® RPMI 1640 Medium supplemented as previously reported, and used for in vitro screening.
(§2) Trypanocidal activity against epimastigotes was tested as previously reported. In brief, 5 × 10^5 mL^−1 epimastigotes culture medium were treated by adding the compounds in serial dilutions from 100 to 0.2 µM in 96-well plates (200 µL·well^−1) for 48 h. BZN and untreated growth control were also included in triplicate. Later, 20 μL of resazurin sodium salt (Sigma-Aldrich, St. Louis, MO, USA) was added, and the plates were incubated for another 24 h. Finally, the absorbance of the wells was measured at 570/600 nm and related to the control. The trypanocidal activity was expressed as the IC50 (inhibitory concentration 50) value using GraphPad Prism 6 software.

[2] = tested on: T. cruzi SN3 strain epimastigotes; assay: Screening against extracellular epimastigotes, SN3 strain (resazurin); type: cell-based, Trypanosoma cruzi
Experimental: as §1, §2

[3] = tested on: T. cruzi SN3 strain amastigotes; assay: Screening against intracellular amastigotes in Vero cells, SN3 strain (Giemsa counting); type: cell-based, Trypanosoma cruzi
Experimental: (§3) TINF/CH/1956/Tulahuen, DTU VI [26]—were grown at 28 °C in Gibco® RPMI 1640 Medium supplemented as previously reported, and used for in vitro screening. Trypanocidal activity against amastigotes was tested as previously reported. In brief, bloodstream trypomastigotes (BTs), obtained by cardiac puncture from infected BALB/c mice, were used to infect 1 × 10^4 Vero cells·well^−1 in 24-well plates with rounded coverslips at a multiplicity of infection (MOI) ratio of 10:1. After 24 h of infection, non-internalized trypomastigotes were washed and the infected cells were treated by adding the compounds in serial dilutions from 50 to 0.5 µM in […] for 72 h. BZN and untreated growth controls were also included in triplicate. Later, the number of amastigotes and infected cells were determined in Giemsa stained preparations by analysing 500 host cells randomly distributed in microscopic fields. The trypanocidal activity was expressed as the IC50 using GraphPad Prism 6 software (version 6.07).

[4] = tested on: T. cruzi Arequipa strain trypomastigotes; assay: Screening against bloodstream trypomastigotes, Arequipa strain (resazurin); type: cell-based, Trypanosoma cruzi
[5] = tested on: T. cruzi Arequipa strain amastigotes; assay: Screening against intracellular amastigotes in Vero cells, Arequipa strain (Giemsa counting); type: cell-based, Trypanosoma cruzi
Experimental: as §3

[6] = tested on: T. cruzi Arequipa strain epimastigotes; assay: Screening against extracellular epimastigotes, Arequipa strain (resazurin); type: cell-based, Trypanosoma cruzi
Experimental: as §1, §2

[7] = type: in vivo, BALB/c mice; conditions: oral 20 mg/Kg/day for 5 days; acute and chronic infections
Experimental: (§4) All animal work (Scheme 1) and maintenance was performed under RD53/2013 and approved by the Ethics Committee on Animal Experimentation (CEEA) of the University of Granada, Spain. Female BALB/c mice (aged 10–12 weeks and 20–22 g) were used in the subsequent in vivo assays.
(§5) Infection was carried out by intraperitoneal inoculation of 5 × 10^5 BTs of T. cruzi Arequipa strain per mouse in 0.2 mL PBS [26]. The infection was monitored and on the 10th day post-infection (dpi), when BTs were visible in the bloodstream, the infection was confirmed.
(§6) Mice were divided into four groups (n = 3 per group): 0, negative control group (uninfected and untreated mice); I, positive control group (infected and untreated mice); II, BZN group (mice infected and treated with BZN); III, 15 group (mice infected and treated with 15).
(§7) The treatment for mice treated in the acute and chronic CD began when the infection was confirmed (10th dpi) and was stablished that the animals had entered the chronic CD (75th dpi), respectively (Scheme 1). Compound 15 and BZN were orally administered for 5 consecutive days at a dose of 20 mg·Kg^−1·day^−1.

[8] = tested on: epimastigotes of T. cruzi Arequipa strain; assay: Mitochondrial membrane potential by flow cytometry (rhodamine 123); type: cell-based, Trypanosoma cruzi; conditions: compounds at IC25 concentrations, 72 h; KCN 10 mM, 40 min; mean of three ± SD
T. cruzi Arequipa strain = assay: Monitoring of acute parasitaemia by counting in infected BALB/c mice; type: in vivo, Trypanosoma cruzi; conditions: acute infection
Experimental: as §4, §5, §6, §7
[…]. The fresh blood microscopic examination was performed from the 7th day until the day when parasitaemia was not detected (Scheme 1).

[9] = IC50 Vero cells/IC50 epimastigotes
[10] = IC50 Vero cells/IC50 amastigotes
[11] = Trypanosoma cruzi, amastigotes in Vero cells, 72 h, mean of three ± SD

Compound: c1cc2nc(c1)CNCCN(CCNCc1ccc3ccc4ccc(CNCCN5CCNCc6cccc(n6)CNCC5)nc4c3n1)CCNC2 [Compound 15]
- Selectivity Index T. cruzi Tulahuen Strain E [1, 9]: 57.4
- IC50 ([1]; Trypanosoma cruzi, TULAHUEN, epimastigotes, 48 h treatment + 24 h resazurin, mean of three ± SD, read-out: Activity IC50 T. cruzi Tulahuen Strain E): 11.4 ± 1.1 µM
- Selectivity Index T. cruzi SN3 Strain E [2, 9]: 38.7
- IC50 ([2]; Trypanosoma cruzi, epimastigotes, 48 h treatment + 24 h resazurin, mean of three ± SD, read-out: Activity IC50 T. cruzi SN3 Strain E): 16.9 ± 1.4 µM
- Selectivity Index T. cruzi SN3 Strain A [3, 10]: 58.0
- IC50 [3, 11]: 11.3 ± 0.9 µM
- Selectivity Index T. cruzi Arequipa Strain T ([4]; IC50 Vero cells/IC50 trypomastigotes): 409.3
- IC50 ([4]; Trypanosoma cruzi, trypomastigotes, 24 h + 4 h resazurin, mean of three ± SD): 1.6 ± 0.1 µM
- Selectivity Index T. cruzi Arequipa Strain A [5, 10]: 262.0
- IC50 [5, 11]: 2.5 ± 0.3 µM
- Selectivity Index T. cruzi Arequipa Strain E [6, 9]: 101.7
- IC50 ([6]; Trypanosoma cruzi, epimastigotes, 48 h treatment + 24 h resazurin, mean of three ± SD, read-out: Activity IC50 T. cruzi Arequipa Strain E): 6.4 ± 0.6 µM
- death or body mass loss of treated mice [7]: none of the mice died or lost more than 10% body mass
- Inhibition on mitochondrial membrane potential with respect to untreated epimastigotes [8]: 43.1%
- parasitaemia reduction on the day of maximum parasitaemia (T. cruzi Arequipa strain; oral 20 mg/Kg/day for 5 days from 10th dpi, vs untreated control): ~ 65%
- parasitaemia undetectable, days before control mice (T. cruzi Arequipa strain; oral 20 mg/Kg/day for 5 days, control detectable up to 50 dpi): 5 days
